From patent publication US20250243210A1, “CRBN E3 LIGASE LIGAND COMPOUND, PROTEIN DEGRADER DEVELOPED BASED THEREON AND THEIR APPLICATIONS” (GLUETACS THERAPEUTICS (SHANGHAI) CO., LTD., priority 2021, published 2025) come the findings set out here.

Experiment [1] deals with human Cereblon WT GST-tagged protein (Homo sapiens (Human), UniProt Q96SW2). The experiment in a line: CRBN binding, HTRF (CEREBLON BINDING kit). As to the method: Determination of CRBN-Binding Affinity of Compounds
The CEREBLON BINDING kits (specification: 10,000 tests; product number: Catalog #64BDCRBNPEH; CISBIO company) was used to determine the CRBN binding ability of the compounds to be tested through a HTRF method (homogeneous time-resolved fluorescence). The specific methods are as follows: • 1. […] Then, 2.5 μL of (human Cereblon WT GST-tagged protein) solution was added to each well. Finally, 5 μL of the uniformly mixed thalidomide-Red reagent and GST Eu antibody working solution were added to each of the above wells. […] The blank control wells were sequentially added with 2.5 μL of diluent #9 (1×) solution, 2.5 μL of ligand binding buffer, and 5 μL of uniformly mixed thalidomide-Red reagent and GST Eu antibody working solution. • 4. […] The corresponding CRBN binding inhibition rate was calculated using the following method: […]

The next experiment deals with LNcap. Briefly: CCK-8 tumor cell proliferation, LNcap. Particulars: 96 h, read-out: IC50 for inhibiting the proliferation of tumor cells, LNcap. It counts as cell-based, Human. As for the experimental part:
(§1) Determination of half inhibitory concentration (IC50) of the compounds against tumor cells:
(§2) The tumor cells used herein were cultured in a cell culture medium listed in table 6 at 37° C. in an incubator with 5% CO2. Prior to experimentation, all cells used were correctly identified by STR profiling, and tested negative for mycoplasma through routine screenings.
(§3) IC50 values of the compounds of the present disclosure (including the compounds in Table 4 and compounds of examples 1-72) were measured using the Meilun Cell Counting Kit-S kit from Dalian Meilun Biotech Co., Ltd. Assay details are as follows: tumor cells were seeded in a 96-well plate at a density listed in Table 7. After 24 h, 100 μL of the inoculated cells were treated with 0.5 μL of the compounds of the present disclosure (including the compounds in Table 4 and compounds of examples 1-72) at 10 different successively decreasing concentrations (starting at the highest concentration of 10 μM; 5-fold serial dilutions). After the cells were treated with the compounds of the present disclosure for a period of time (the treatment times listed in Table 7), the cell viability detection reagent was added to the culture medium for cell viability assessment according to the instructions provided with the CCK-8 kit. […] The growth inhibition of the compounds of the present disclosure on cells was plotted by Prism Graphpad software, and the IC50 values of the compounds of the present disclosure were calculated therefrom.

A further experiment relates to PC-3. The experiment in a line: CCK-8 tumor cell proliferation, PC-3. It is filed as cell-based, Human. Particulars: PC-3, 96 h, read-out: IC50 for inhibiting the proliferation of tumor cells, PC-3. As for the experimental part:
as §1
(§4) The tumor cells used herein were cultured in a cell culture medium listed in table 6 at 37° C. in an incubator with 5% CO2.
(§5) After the cells were treated with the compounds of the present disclosure for a period of time (the treatment times listed in Table 7), the cell viability detection reagent was added to the culture medium for cell viability assessment according to the instructions provided with the CCK-8 kit. […] The growth inhibition of the compounds of the present disclosure on cells was plotted by Prism Graphpad software, and the IC50 values of the compounds of the present disclosure were calculated therefrom.

For the next experiment, the system named is DU-145. The experiment in a line: CCK-8 tumor cell proliferation, DU-145. It is filed as cell-based, Human. Particulars: DU-145, 96 h, read-out: IC50 for inhibiting the proliferation of tumor cells, DU-145. As to the method:
as §1, §4, §5

Another experiment deals with WSU-DLCL2. The experiment in a line: CCK-8 tumor cell proliferation, WSU-DLCL2. It is filed as cell-based, Human. Particulars: read-out: IC50 for inhibiting the proliferation of tumor cells, WSU-DLCL2. As for the experimental part:
as §1, §4, §5

In a further experiment the test system is MGC80-3. Briefly: CCK-8 tumor cell proliferation, MGC80-3. It counts as cell-based, Human. To be noted: read-out: IC50 for inhibiting the proliferation of tumor cells, MGC80-3. As to the method:
as §1, §2, §3

The next experiment has as its system Hep3B2.1-7. Briefly: CCK-8 tumor cell proliferation, Hep3B2.1-7. It is filed as cell-based, Human. Particulars: Homo sapiens, Hep3B2.1-7, 96 h, read-out: IC50 for inhibiting the proliferation of tumor cells, Hep3B2.1-7. As to the method: as §1, §2, §3
The subject of another experiment is Kasumi-1. Briefly: CCK-8 tumor cell proliferation, Kasumi-1. It is filed as cell-based. Particulars: Homo sapiens, Kasumi-1, 72 h, read-out: IC50 for inhibiting the proliferation of tumor cells, Kasumi-1. As to the method: as §1, §4, §5
Setting [2] is: Homo sapiens, WSUDLCL2, WSU-DLCL2, 96 h.
Setting [3] is: Homo sapiens, MGC-803, MGC80-3, 96 h.

The structures appear in SMILES notation. Read-outs that look alike come from different tables or passages of the source.

human Cereblon WT GST-tagged protein, sequence (Q96SW2 whole entry): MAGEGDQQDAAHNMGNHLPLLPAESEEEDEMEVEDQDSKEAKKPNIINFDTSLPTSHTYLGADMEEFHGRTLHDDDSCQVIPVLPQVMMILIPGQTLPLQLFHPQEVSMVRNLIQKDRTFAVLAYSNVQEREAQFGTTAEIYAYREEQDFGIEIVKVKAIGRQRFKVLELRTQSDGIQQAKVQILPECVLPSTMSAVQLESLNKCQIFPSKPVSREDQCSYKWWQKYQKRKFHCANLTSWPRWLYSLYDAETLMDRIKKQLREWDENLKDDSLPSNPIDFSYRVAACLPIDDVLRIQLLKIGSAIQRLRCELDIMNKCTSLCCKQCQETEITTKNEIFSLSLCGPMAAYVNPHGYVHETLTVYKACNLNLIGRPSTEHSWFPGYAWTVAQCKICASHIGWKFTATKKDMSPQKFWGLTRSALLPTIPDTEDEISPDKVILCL

Turning to `O=C1CCC(N2C(=O)c3ccc(N4CC5CC(C4)N5)cc3C2=O)C(=O)N1` (centres unmarked) [GT-03075, 5-(3,6-diazabicyclo[3.1.1]heptan-3-yl)-2-(2,6-dioxopiperidin-3-yl)isoindoline-1,3-dione], the IC50 in experiment [1] stood at 5090 nM.
Still for that read-out and setting: to `O=C1CCC(N2C(=O)c3ccc(N4CC5CCC4CN5)cc3C2=O)C(=O)N1` (centres unmarked) [GT-03076, 5-(2,5-diazabicyclo[2.2.2]octan-2-yl)-2-(2,6-dioxopiperidin-3-yl)isoindoline-1,3-dione] belongs 650 nM; to `O=C1CCC(N2C(=O)c3ccc(N4CC5CCC(C4)N5)cc3C2=O)C(=O)N1` (centres unmarked) [GT-03077, 5-(3,8-diazabicyclo[3.2.1]octan-3-yl)-2-(2,6-dioxopiperidin-3-yl)isoindoline-1,3-dione], 5200 nM; to `O=C1CCC(N2C(=O)c3ccc(N4C5CNCC4C5)cc3C2=O)C(=O)N1` (centres unmarked) [GT-03100, 5-(3,6-diazabicyclo[3.1.1]heptan-6-yl)-2-(2,6-dioxopiperidin-3-yl)isoindoline-1,3-dione], 9800 nM.
For `O=C1CCC(N2C(=O)c3cc(F)c(N4C5CNCC4C5)cc3C2=O)C(=O)N1` (centres unmarked) [GT-03106, 5-(3,6-diazabicyclo[3.1.1]heptan-6-yl)-2-(2,6-dioxopiperidin-3-yl)-6-fluoroisoindoline-1,3-dione], the IC50 in experiment [1] amounted to 4040 nM.
Same read-out and setting: the value for `[2H]C1([2H])NC([2H])([2H])C([2H])([2H])N(c2cc3c(cc2F)C(=O)N(C2CCC(=O)NC2=O)C3=O)C1([2H])[2H]` (centres unmarked) [GT-03108, 2-(2,6-dioxopiperidin-3-yl)-5-fluoro-6-(piperazin-1-yl-2,2,3,3,5,5,6,6-d8)isoindoline-1,3-dione] was 8750 nM; that for `O=C1CCC(N2C(=O)c3cc(F)c(N4CC5CC(C4)N5)cc3C2=O)C(=O)N1` (centres unmarked) [GT-03109, 5-(3,6-diazabicyclo[3.1.1]heptan-3-yl)-2-(2,6-dioxopiperidin-3-yl)-6-fluoroisoindoline-1,3-dione] was 3550 nM.
Compound `O=C1CCC(N2C(=O)c3ccc(N4C5CCC4CNC5)cc3C2=O)C(=O)N1` (centres unmarked) [GT-03210, 5-(3,8-diazabicyclo[3.2.1]octan-8-yl)-2-(2,6-dioxopiperidin-3-yl)isoindoline-1,3-dione] registered an IC50 in experiment [1] of 2690 nM.
On the same count and under the same terms, the value for `O=C1CCC(N2C(=O)c3cc(F)c(N4C5CCC4CNC5)cc3C2=O)C(=O)N1` (centres unmarked) [GT-03211, 5-(3,8-diazabicyclo[3.2.1]octan-8-yl)-2-(2,6-dioxopiperidin-3-yl)-6-fluoroisoindoline-1,3-dione] was 9800 nM.
As for `N#Cc1ccc(OC2CCC(NC(=O)c3ccc(N4CCC(CN5CC6CC(C5)N6c5ccc6c(c5)C(=O)N(C5CCC(=O)NC5=O)C6=O)CC4)nn3)CC2)cc1Cl` (centres unmarked) [GT-03339, N-((1r,4r)-4-(3-chloro-4-cyanophenoxy)cyclohexyl)-6-(4-((6-(2-(2,6-dioxopiperidin-3-yl)-1,3-dioxoisoindolin-5-yl)-3,6-diazabicyclo[3.1.1]heptan-3-yl)methyl)piperidin-1-yl)pyridazine-3-carboxamide], the IC50 with LNcap lay in the range of 100 to 500 nM; in the experiment on PC-3, 100 to 500 nM; in the experiment with DU-145, 100 to 500 nM; in the experiment on WSU-DLCL2 (WSU-DLCL2, 96 h), 100 to 500 nM; in the experiment on MGC80-3 (MGC80-3, 96 h), 50 to 100 nM.
For the compound `CC1(C)[C@H](NC(=O)c2ccc(N3CCC(CN4C5CCC4CN(c4ccc6c(c4)C(=O)N(C4CCC(=O)NC4=O)C6=O)C5)CC3)nn2)C(C)(C)[C@H]1Oc1ccc(C#N)c(Cl)c1` (some centres unmarked) [GT-03399, N-((1r,3r)-3-(3-chloro-4-cyanophenoxy)-2,2,4,4-tetramethylcyclobutyl)-6-(4-((3-(2-(2,6-dioxopiperidin-3-yl)-1,3-dioxoisoindolin-5-yl)-3,8-diazabicyclo[3.2.1]octan-8-yl)methyl)piperidin-1-yl)pyridazine-3-carboxamide], the IC50 in the experiment with LNcap (Homo sapiens) lay in the range of 100 to 500 nM; in the experiment with PC-3 (Homo sapiens) it was 100 to 500 nM; in the experiment with DU-145 (Homo sapiens), 100 to 500 nM; with WSU-DLCL2 (setting [2]) it was 500 to 1000 nM; with Hep3B2.1-7, 100 to 500 nM.
As to `CC1(C)[C@H](NC(=O)c2ccc(N3CCC(CN4CC5CC(C4)N5c4ccc5c(c4)C(=O)N(C4CCC(=O)NC4=O)C5=O)CC3)nn2)C(C)(C)[C@H]1Oc1ccc(C#N)c(Cl)c1` (some centres unmarked) [GT-03400, N-((1r,3r)-3-(3-chloro-4-cyanophenoxy)-2,2,4,4-tetramethylcyclobutyl)-6-(4-((6-(2-(2,6-dioxopiperidin-3-yl)-1,3-dioxoisoindolin-5-yl)-3,6-diazabicyclo[3.1.1]heptan-3-yl)methyl)piperidin-1-yl)pyridazine-3-carboxamide], the IC50 in the experiment on LNcap (Homo sapiens) lay within 100 to 500 nM; with PC-3 (Homo sapiens), 100 to 500 nM; with DU-145 (Homo sapiens) it was 100 to 500 nM; with WSU-DLCL2 (setting [2]), 500 to 1000 nM; in the experiment with MGC80-3 (setting [3]) it was 100 to 500 nM.
As for `CC1(C)[C@H](NC(=O)c2ccc(N3CCC(CN4C5CC4CN(c4ccc6c(c4)C(=O)N(C4CCC(=O)NC4=O)C6=O)C5)CC3)nn2)C(C)(C)[C@H]1Oc1ccc(C#N)c(Cl)c1` (some centres unmarked) [GT-03401, N-((1r,3r)-3-(3-chloro-4-cyanophenoxy)-2,2,4,4-tetramethylcyclobutyl)-6-(4-((3-(2-(2,6-dioxopiperidin-3-yl)-1,3-dioxoisoindolin-5-yl)-3,6-diazabicyclo[3.1.1]heptan-6-yl)methyl)piperidin-1-yl)pyridazine-3-carboxamide], the IC50 in the experiment on LNcap (Homo sapiens) is 500 to 1000 nM; in the experiment with PC-3 (Homo sapiens) it was 100 to 500 nM; with DU-145 (Homo sapiens) it was 500 to 1000 nM; with WSU-DLCL2 (setting [2]) it was 1000 to 5000 nM; in the experiment with MGC80-3 (setting [3]), 100 to 500 nM.
For `CC1(C)[C@H](NC(=O)c2ccc(N3CCC(CN4CC5CC(C4)N5c4cc5c(cc4F)C(=O)N(C4CCC(=O)NC4=O)C5=O)CC3)nc2)C(C)(C)[C@H]1Oc1ccc(C#N)c(Cl)c1` (some centres unmarked) [GT-03403, N-((1r,3r)-3-(3-chloro-4-cyanophenoxy)-2,2,4,4-tetramethylcyclobutyl)-6-(4-((6-(2-(2,6-dioxopiperidin-3-yl)-6-fluoro-1,3-dioxoisoindolin-5-yl)-3,6-diazabicyclo[3.1.1]heptan-3-yl)methyl)piperidin-1-yl)nicotinamide], the IC50 in the experiment on LNcap (Homo sapiens) is 500 to 1000 nM; in the experiment on PC-3 (Homo sapiens), 100 to 500 nM; with DU-145 (Homo sapiens) it was 100 to 500 nM; in the experiment with WSU-DLCL2 (setting [2]), 5000 to 10000 nM; with MGC80-3 (setting [3]), 500 to 1000 nM.
In the case of `Cc1nc(Nc2ncc(C(=O)Nc3c(C)cccc3Cl)s2)cc(N2CCC(CN3CC4CC(C3)N4c3cc4c(cc3F)C(=O)N(C3CCC(=O)NC3=O)C4=O)CC2)n1` (centres unmarked) [GT-03628, N-(2-chloro-6-methylphenyl)-2-((6-(4-((6-(2-(2,6-dioxopiperidin-3-yl)-6-fluoro-1,3-dioxoisoindolin-5-yl)-3,6-diazabicyclo[3.1.1]heptan-3-yl)methyl)piperidin-1-yl)-2-methylpyrimidin-4-yl)amino)thiazole-5-carboxamide], the IC50 in the experiment with Kasumi-1 was in the range of 100 to 500 nM.
